Experiment [1] deals with HeLa-Cells. Briefly: In vitro transfection with liposomes encapsulating carboxyfluorescein, fluorescence microscopy (Example 5). The format is cell-based. Conditions: 0.5 mM CF/well, FIG. 7-11. As for the experimental part:
HeLa-Cells were obtained from DSMZ (German Collection of Micro Organism and Cell Cultures) and maintained in DMEM. Media were purchased from Gibco-Invitrogen and supplemented with 10% FCS at 37° C. under 5% CO2. The cells were plated at a density of 2×10^4 cells/ml and cultivated in 100 μl medium. After 16 h the media were replaced with Opti-MEM I (Gibco) containing liposomes (L1-L24) with a total amount of 50 to 200 ng Cy3-labelled oligonucleotides or 0.5 mM CF/well. Cell culture dishes were centrifuged for 1 h at 450 g at 37° C., followed by an incubation of 3 h hours at 37° C. under 5% CO2. The transfection mixture was replaced by the above mentioned medium and cells were incubated for further 24-48 h hours. Transfection efficiency and cellular distribution was determined after 4 or 24 hours by light and fluorescence microscopy using objectives with 10× or 40× magnification (Axionvert S 100, Carl Zeiss Inc.).

The subject of experiment [2] is HeLa-Cells. Kind of experiment: In vitro transfection with liposomes encapsulating carboxyfluorescein (Example 11). Conditions: 0.05 mM CF/well, 4 hours, FIG. 17, 18. The format is cell-based. As for the experimental part: HeLa-Cells were obtained from DSMZ (German Collection of Micro Organism and Cell Cultures) and maintained in DMEM. Media were purchased from Gibco-Invitrogen and supplemented with 10% FCS at 37° C. under 5% CO2. The cells were plated at a density of 4×10^4 cells/ml and cultivated in 100 μl medium. After 16 h the media were replaced with Opti-MEM I (Gibco) containing liposomes (L-46-L-49) with a total amount of 0.05 mM CF/well. Cell culture dishes were incubated for 4 hours at 37° C. under 5% CO2. Transfection efficiency and cellular distribution was determined after 4 hours by fluorescence microscopy with an exposure time of 5 seconds and using the 10/100 fold objective (Axionvert S 100, Carl Zeiss Inc.). Before imaging cells were washed several times (5×) with PBS pH7.4 and analysed directly (incubation time 20 to 30 sec.) in 50 μl PBS pH7.4. As control free CF (0.1 mM) in PBS was added to the cells.

Consider “carboxyfluorescein [free carboxyfluorescein]”, for which, in the experiment with HeLa-Cells [1], the “fluorescence signal of carboxyfluorescein in cytosol or nucleus” value is “do not show any fluorescence signals”. Further, in the experiment with HeLa-Cells [2], the “fluorescence signal of carboxyfluorescein” value is listed as “no fluorescence signal was observed”.

These data come from patent US8193246B2, “Lipids and lipid assemblies comprising transfection enhancer elements” (Marina Biotech, Inc., priority 2006, dated 2012).
